# Tests used:
# Experiment in all cases: relative viability (nuclei count vs DMSO), 5 days (fraction); higher = more cells survive
# AZD8055 = compound: COc1ccc(-c2ccc3c(N4CCOC[C@@H]4C)nc(N4CCOC[C@@H]4C)nc3n2)cc1CO [AZD8055]
# In short: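 Hoechst staining, done together with fixation and permeabilisation, marked nuclei for 4× imaging and MetaXpress counting. This followed 5 days without medium change after lung cancer cell lines, kept overnight at 37 °C in 1536-well plates, were pinned with five library-drug doses (not always all listed) spaced by √10 on vehicle-anchored plates. Viability is the ratio of treated-well to vehicle-well nuclei, expressed as a median across plates. Plates passed only at control CV below 25% with at least one doubling.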
# AZD8055 + Trametinib = compound: COc1ccc(-c2ccc3c(N4CCOC[C@@H]4C)nc(N4CCOC[C@@H]4C)nc3n2)cc1CO [AZD8055] + CC(=O)Nc1cccc(-n2c(=O)n(C3CC3)c(=O)c3c(Nc4ccc(I)cc4F)n(C)c(=O)c(C)c32)c1 [Trametinib] (partner 0.02 µM)
# In short: (§1)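 Lung cancer cell lines were seeded in 1536-well plates and dosed by pin tool the next day, with either a single drug or a fixed anchor-drug dose combined with five library-drug doses (not always all listed) spaced in √10 steps. Five days later, one step fixed the cells and stained their nuclei (final 0.05% Triton X-100, 1% formaldehyde, 1 ug/ml Hoechst), and nuclei were counted on 4× images. Relative viability is the nuclei count in treated wells divided by the count in vehicle wells, and each value is the median of duplicate plates.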
# AZD8055 + Palbociclib = compound: COc1ccc(-c2ccc3c(N4CCOC[C@@H]4C)nc(N4CCOC[C@@H]4C)nc3n2)cc1CO [AZD8055] + CC(=O)c1c(C)c2cnc(Nc3ccc(N4CCNCC4)cn3)nc2n(C2CCCC2)c1=O [Palbociclib] (partner 0.5 µM)
# In short: as §1
# AZD8055 + Luminespib = compound: COc1ccc(-c2ccc3c(N4CCOC[C@@H]4C)nc(N4CCOC[C@@H]4C)nc3n2)cc1CO [AZD8055] + CCNC(=O)c1noc(-c2cc(C(C)C)c(O)cc2O)c1-c1ccc(CN2CCOCC2)cc1 [Luminespib] (partner 0.01 µM)
# In short: as §1
# AZD8055 + Foretinib = compound: COc1ccc(-c2ccc3c(N4CCOC[C@@H]4C)nc(N4CCOC[C@@H]4C)nc3n2)cc1CO [AZD8055] + COc1cc2c(Oc3ccc(NC(=O)C4(C(=O)Nc5ccc(F)cc5)CC4)cc3F)ccnc2cc1OCCCN1CCOCC1 [Foretinib] (partner 0.25 µM)
# In short: as §1
# AZD8055 + OSI-027 = compound: COc1ccc(-c2ccc3c(N4CCOC[C@@H]4C)nc(N4CCOC[C@@H]4C)nc3n2)cc1CO [AZD8055] + COc1cccc2cc(-c3nc([C@H]4CC[C@H](C(=O)O)CC4)n4ncnc(N)c34)[nH]c12 [OSI-027] (partner 0.5 µM)
# In short: as §1
# AZD8055 + Tozasertib = compound: COc1ccc(-c2ccc3c(N4CCOC[C@@H]4C)nc(N4CCOC[C@@H]4C)nc3n2)cc1CO [AZD8055] + Cc1cc(Nc2cc(N3CCN(C)CC3)nc(Sc3ccc(NC(=O)C4CC4)cc3)n2)n[nH]1 [Tozasertib] (partner 0.1 µM)
# In short: as §1
# AZD8055 + Dasatinib = compound: COc1ccc(-c2ccc3c(N4CCOC[C@@H]4C)nc(N4CCOC[C@@H]4C)nc3n2)cc1CO [AZD8055] + Cc1nc(Nc2ncc(C(=O)Nc3c(C)cccc3Cl)s2)cc(N2CCN(CCO)CC2)n1 [Dasatinib] (partner 0.075 µM)
# In short: as §1
# AZD8055 + Phenformin = compound: COc1ccc(-c2ccc3c(N4CCOC[C@@H]4C)nc(N4CCOC[C@@H]4C)nc3n2)cc1CO [AZD8055] + N=C(N)NC(=N)NCCc1ccccc1 [Phenformin] (partner 250 µM)
# In short: as §1
# AZD8055 + AZD7762 = compound: COc1ccc(-c2ccc3c(N4CCOC[C@@H]4C)nc(N4CCOC[C@@H]4C)nc3n2)cc1CO [AZD8055] + NC(=O)Nc1cc(-c2cccc(F)c2)sc1C(=O)N[C@H]1CCCNC1 [AZD7762] (partner 0.2 µM)
# In short: as §1
# AZD8055 + Pemetrexed = compound: COc1ccc(-c2ccc3c(N4CCOC[C@@H]4C)nc(N4CCOC[C@@H]4C)nc3n2)cc1CO [AZD8055] + Nc1nc2[nH]cc(CCc3ccc(C(=O)N[C@@H](CCC(=O)O)C(=O)O)cc3)c2c(=O)[nH]1 [Pemetrexed] (partner 0.2 µM)
# In short: as §1
# AZD8055 + Decitabine = compound: COc1ccc(-c2ccc3c(N4CCOC[C@@H]4C)nc(N4CCOC[C@@H]4C)nc3n2)cc1CO [AZD8055] + Nc1ncn([C@H]2C[C@H](O)[C@@H](CO)O2)c(=O)n1 [Decitabine] (partner 2 µM)
# In short: as §1
# AZD8055 + Vorinostat = compound: COc1ccc(-c2ccc3c(N4CCOC[C@@H]4C)nc(N4CCOC[C@@H]4C)nc3n2)cc1CO [AZD8055] + O=C(CCCCCCC(=O)Nc1ccccc1)NO [Vorinostat] (partner 1 µM)
# In short: as §1
# AZD8055 + Olaparib = compound: COc1ccc(-c2ccc3c(N4CCOC[C@@H]4C)nc(N4CCOC[C@@H]4C)nc3n2)cc1CO [AZD8055] + O=C(c1cc(Cc2n[nH]c(=O)c3ccccc23)ccc1F)N1CCN(C(=O)C2CC2)CC1 [Olaparib] (partner 8 µM)
# In short: as §1
cell line,measurement,setting,value
SW 900,relative viability,AZD8055; 0.01 µM,0.827
same,relative viability,AZD8055; 0.03162 µM,0.783
same,relative viability,AZD8055; 0.1 µM,0.704
same,relative viability,AZD8055; 0.3162 µM,0.513
same,relative viability,AZD8055; 1 µM,0.236
same,relative viability,AZD8055 + Trametinib; first compound 0.01 µM,0.897
same,relative viability,AZD8055 + Trametinib; first compound 0.03162 µM,0.783
same,relative viability,AZD8055 + Trametinib; first compound 0.1 µM,0.622
same,relative viability,AZD8055 + Trametinib; first compound 0.3162 µM,0.374
same,relative viability,AZD8055 + Trametinib; first compound 1 µM,0.505
same,relative viability,AZD8055 + Palbociclib; first compound 0.01 µM,0.546
same,relative viability,AZD8055 + Palbociclib; first compound 0.03162 µM,0.559
same,relative viability,AZD8055 + Palbociclib; first compound 0.1 µM,0.474
same,relative viability,AZD8055 + Palbociclib; first compound 0.3162 µM,0.261
same,relative viability,AZD8055 + Palbociclib; first compound 1 µM,0.289
same,relative viability,AZD8055 + Luminespib; first compound 0.01 µM,0.172
same,relative viability,AZD8055 + Luminespib; first compound 0.03162 µM,0.182
same,relative viability,AZD8055 + Luminespib; first compound 0.1 µM,0.17
same,relative viability,AZD8055 + Luminespib; first compound 0.3162 µM,0.177
same,relative viability,AZD8055 + Luminespib; first compound 1 µM,0.16
same,relative viability,AZD8055 + Foretinib; first compound 0.01 µM,1.03
same,relative viability,AZD8055 + Foretinib; first compound 0.03162 µM,0.86
same,relative viability,AZD8055 + Foretinib; first compound 0.1 µM,0.647
same,relative viability,AZD8055 + Foretinib; first compound 0.3162 µM,0.654
same,relative viability,AZD8055 + Foretinib; first compound 1 µM,0.409
same,relative viability,AZD8055 + OSI-027; first compound 0.01 µM,0.592
same,relative viability,AZD8055 + OSI-027; first compound 0.03162 µM,0.602
same,relative viability,AZD8055 + OSI-027; first compound 0.1 µM,0.536
same,relative viability,AZD8055 + OSI-027; first compound 0.3162 µM,0.311
same,relative viability,AZD8055 + OSI-027; first compound 1 µM,0.196
same,relative viability,AZD8055 + Tozasertib; first compound 0.01 µM,0.567
same,relative viability,AZD8055 + Tozasertib; first compound 0.03162 µM,0.747
same,relative viability,AZD8055 + Tozasertib; first compound 0.1 µM,0.425
same,relative viability,AZD8055 + Tozasertib; first compound 0.3162 µM,0.285
same,relative viability,AZD8055 + Tozasertib; first compound 1 µM,0.34
same,relative viability,AZD8055 + Dasatinib; first compound 0.01 µM,0.622
same,relative viability,AZD8055 + Dasatinib; first compound 0.03162 µM,0.691
same,relative viability,AZD8055 + Dasatinib; first compound 0.1 µM,0.535
same,relative viability,AZD8055 + Dasatinib; first compound 0.3162 µM,0.177
same,relative viability,AZD8055 + Dasatinib; first compound 1 µM,0.184
same,relative viability,AZD8055 + Phenformin; first compound 0.01 µM,0.568
same,relative viability,AZD8055 + Phenformin; first compound 0.03162 µM,0.343
same,relative viability,AZD8055 + Phenformin; first compound 0.1 µM,0.489
same,relative viability,AZD8055 + Phenformin; first compound 0.3162 µM,0.368
same,relative viability,AZD8055 + Phenformin; first compound 1 µM,0.169
same,relative viability,AZD8055 + AZD7762; first compound 0.01 µM,0.538
same,relative viability,AZD8055 + AZD7762; first compound 0.03162 µM,1.01
same,relative viability,AZD8055 + AZD7762; first compound 0.1 µM,0.54
same,relative viability,AZD8055 + AZD7762; first compound 0.3162 µM,0.324
same,relative viability,AZD8055 + AZD7762; first compound 1 µM,0.268
same,relative viability,AZD8055 + Pemetrexed; first compound 0.01 µM,0.493
same,relative viability,AZD8055 + Pemetrexed; first compound 0.03162 µM,0.469
same,relative viability,AZD8055 + Pemetrexed; first compound 0.1 µM,0.512
same,relative viability,AZD8055 + Pemetrexed; first compound 0.3162 µM,0.353
same,relative viability,AZD8055 + Pemetrexed; first compound 1 µM,0.241
same,relative viability,AZD8055 + Decitabine; first compound 0.01 µM,0.459
same,relative viability,AZD8055 + Decitabine; first compound 0.03162 µM,0.519
same,relative viability,AZD8055 + Decitabine; first compound 0.1 µM,0.472
same,relative viability,AZD8055 + Decitabine; first compound 0.3162 µM,0.492
same,relative viability,AZD8055 + Decitabine; first compound 1 µM,0.47
same,relative viability,AZD8055 + Vorinostat; first compound 0.01 µM,0.461
same,relative viability,AZD8055 + Vorinostat; first compound 0.03162 µM,0.499
same,relative viability,AZD8055 + Vorinostat; first compound 0.1 µM,0.538
same,relative viability,AZD8055 + Vorinostat; first compound 0.3162 µM,0.325
same,relative viability,AZD8055 + Vorinostat; first compound 1 µM,0.265
same,relative viability,AZD8055 + Olaparib; first compound 0.01 µM,0.812
same,relative viability,AZD8055 + Olaparib; first compound 0.03162 µM,0.952
same,relative viability,AZD8055 + Olaparib; first compound 0.1 µM,0.719
same,relative viability,AZD8055 + Olaparib; first compound 0.3162 µM,0.48
same,relative viability,AZD8055 + Olaparib; first compound 1 µM,0.502

# From the supplement of paper PMC10307832
